Measured values reported in patent US8927009B2 (AbbVie Inc., priority 2009, dated 2015).
Where a name gives a salt, the structure may show the parent alone.

Experiments:
Assay type in all cases: physicochemical
[1] = Solubility in lipid solvents and solvent mixtures in ambient conditions; conditions: listed as bis-HCl salt
Method: Solubility of ABT-263 parent (free base, crystalline Form I) and ABT-263 bis-HCl salt was tested in a variety of lipid solvents and solvent mixtures in ambient conditions. Trademarked solvents in this study, unless identified hereinabove, are as follows (substantially equivalent products from other manufacturers can be substituted if available): • Miglyol 810™ of Sasol: caprylic/capric triglycerides; • Capmul MCM™ of Abitec: glyceryl caprylate/caprate; • Captex 300™ of Abitec: caprylic/capric triglycerides; • Labrafil M 2125 CS™ of Gattefossé: polyoxyethylene glyceryl linoleate; • Tween 20™ of Uniqema: polysorbate 20; • Labrasol™ of Gattefossé: polyoxyethylene glyceryl caprylate/caprate; • Cremophor RH40™: polyoxyethyene (40) hydrogenated castor oil. “PE-91” is Phosal 53 MCT™+ethanol, 9:1 by volume. “LOT-343” is Labrafil M 1944 CS™+oleic acid+Tween 80™, 30:40:30 by weight.
In some cases, indicated in Table 4 by an asterisk (*), solubility was initially high but precipitation occurred upon standing.

[2] = Drug solubility in ternary excipient systems; set-up: key: ✓: vehicle miscible, or drug fully dissolved in vehicle; conditions: 10% salt, 20% free base
From the text: (§1) Solvents evaluated included Labrafil M 1944 CS™, Imwitor 742™, oleic acid, Capmul PG-8™, Capmul PG-12™, Lauroglycol 90™ (propylene glycol monolaurate, available from Gattefossé) and Phosal 53 MCT™. Surfactants evaluated included Tween 80™, Cremophor RH40™, Gelucire 44/14™ (polyoxyethylene glyceryl laurate, available from Gattefossé) and Labrasol™.

[3] = Drug solubility in ternary excipient systems; set-up: key: ✓: vehicle miscible, or drug fully dissolved in vehicle; x: vehicle immiscible or miscible but turbid, or residual solids present (due to undissolved drug or precipitation); conditions: 10% salt, 20% free base
From the text: as §1

CC1(C)CCC(c2ccc(Cl)cc2)=C(CN2CCN(c3ccc(C(=O)NS(=O)(=O)c4ccc(N[C@H](CCN5CCOCC5)CSc5ccccc5)c(S(=O)(=O)C(F)(F)F)c4)cc3)CC2)C1 [ABT-263 bis-HCl]
<52 mg/g: Solubility ([1]; in Captex 300, ambient conditions)
<41 mg/g: Solubility ([1]; in poloxamer 124, ambient conditions)
89 mg/g: Solubility ([1]; in PE-91 (Phosal 53 MCT + ethanol 9:1 by volume), ambient conditions)
<39 mg/g: Solubility ([1]; in Capmul PG-12, ambient conditions)
✓: ABT-263 solubility ([2]; Capmul PG-8/Labrafil M 1944 CS/Labrasol (C8LL) 40:40:20 % by weight) | ABT-263 solubility ([2]; Capmul PG-12/Labrafil M 1944 CS/Tween 80 (C12LT) 30:40:30 % by weight) | ABT-263 solubility ([2]; Capmul PG-12/Labrafil M 1944 CS/Tween 80 (C12LT) 35:40:25 % by weight) | ABT-263 solubility ([2]; Capmul PG-12/Labrafil M 1944 CS/Tween 80 (C12LT) 40:30:30 % by weight) | ABT-263 solubility ([2]; Capmul PG-12/Labrafil M 1944 CS/Tween 80 (C12LT) 45:30:25 % by weight) | ABT-263 solubility ([2]; Imwitor 742/Labrafil M 1944 CS/Cremophor RH40 (ILC) 40:40:20 % by weight, listed as salt) | ABT-263 solubility ([2]; Imwitor 742/Labrafil M 1944 CS/Cremophor RH40 (ILC) 50:30:20 % by weight, listed as salt) | ABT-263 solubility ([2]; Imwitor 742/Labrafil M 1944 CS/Cremophor RH40 (ILC) 50:40:10 % by weight, listed as salt) | ABT-263 solubility ([2]; Imwitor 742/Labrafil M 1944 CS/Cremophor RH40 (ILC) 60:30:10 % by weight, listed as salt) | ABT-263 solubility ([2]; Imwitor 742/Labrafil M 1944 CS/Labrasol (ILL) 40:40:20 % by weight, listed as salt) | ABT-263 solubility ([2]; Imwitor 742/Labrafil M 1944 CS/Labrasol (ILL) 50:30:20 % by weight, listed as salt) | ABT-263 solubility ([2]; Imwitor 742/Labrafil M 1944 CS/Labrasol (ILL) 50:40:10 % by weight, listed as salt) | ABT-263 solubility ([2]; Imwitor 742/Labrafil M 1944 CS/Labrasol (ILL) 60:30:10 % by weight, listed as salt) | ABT-263 solubility ([2]; Labrafil M 1944 CS/Imwitor 742/Tween 80 (LIT) 30:40:30 % by weight, listed as salt) | ABT-263 solubility ([2]; Labrafil M 1944 CS/Imwitor 742/Tween 80 (LIT) 30:45:25 % by weight, listed as salt) | ABT-263 solubility ([2]; Labrafil M 1944 CS/Imwitor 742/Tween 80 (LIT) 40:30:30 % by weight, listed as salt) | ABT-263 solubility ([2]; Labrafil M 1944 CS/Imwitor 742/Tween 80 (LIT) 40:35:25 % by weight, listed as salt) | ABT-263 solubility ([2]; Labrafil M 1944 CS/oleic acid/Cremophor RH40 (LOC) 30:60:10 % by weight) | ABT-263 solubility ([2]; Labrafil M 1944 CS/oleic acid/Cremophor RH40 (LOC) 40:50:10 % by weight) | ABT-263 solubility ([2]; Labrafil M 1944 CS/oleic acid/Tween 80 (LOT) 30:40:30 % by weight) | ABT-263 solubility ([2]; Labrafil M 1944 CS/oleic acid/Tween 80 (LOT) 30:45:25 % by weight) | ABT-263 solubility ([2]; Labrafil M 1944 CS/oleic acid/Tween 80 (LOT) 40:30:30 % by weight) | ABT-263 solubility ([2]; Labrafil M 1944 CS/oleic acid/Tween 80 (LOT) 40:35:25 % by weight) | ABT-263 solubility ([2]; Lauroglycol 90/Labrafil M 1944 CS/Cremophor RH40 (LLC) 45:30:25 % by weight) | ABT-263 solubility ([2]; Lauroglycol 90/Labrafil M 1944 CS/Labrasol (LLL) 40:40:20 % by weight) | ABT-263 solubility ([2]; Lauroglycol 90/Labrafil M 1944 CS/Labrasol (LLL) 50:30:20 % by weight) | ABT-263 solubility ([2]; Lauroglycol 90/Labrafil M 1944 CS/Labrasol (LLL) 50:40:10 % by weight, listed as salt) | ABT-263 solubility ([2]; Lauroglycol 90/Labrafil M 1944 CS/Labrasol (LLL) 60:30:10 % by weight, listed as salt) | ABT-263 solubility ([2]; oleic acid/Labrafil M 1944 CS/Labrasol (OLL) 40:40:20 % by weight) | ABT-263 solubility ([2]; oleic acid/Labrafil M 1944 CS/Labrasol (OLL) 50:30:20 % by weight) | ABT-263 solubility ([2]; oleic acid/Labrafil M 1944 CS/Labrasol (OLL) 50:40:10 % by weight) | ABT-263 solubility ([2]; oleic acid/Labrafil M 1944 CS/Labrasol (OLL) 60:30:10 % by weight)
<43 mg/g: Solubility ([1]; in Capmul PG-8, ambient conditions)
x: ABT-263 solubility ([3]; Capmul PG-8/Labrafil M 1944 CS/Cremophor RH40 (C8LC) 40:40:20 % by weight) | ABT-263 solubility ([3]; Capmul PG-8/Labrafil M 1944 CS/Cremophor RH40 (C8LC) 50:30:20 % by weight) | ABT-263 solubility ([3]; Capmul PG-8/Labrafil M 1944 CS/Cremophor RH40 (C8LC) 50:40:10 % by weight) | ABT-263 solubility ([3]; Capmul PG-8/Labrafil M 1944 CS/Cremophor RH40 (C8LC) 60:30:10 % by weight) | ABT-263 solubility ([3]; Capmul PG-8/Labrafil M 1944 CS/Labrasol (C8LL) 50:30:20 % by weight) | ABT-263 solubility ([3]; Capmul PG-8/Labrafil M 1944 CS/Labrasol (C8LL) 50:40:10 % by weight) | ABT-263 solubility ([3]; Capmul PG-8/Labrafil M 1944 CS/Labrasol (C8LL) 60:30:10 % by weight) | ABT-263 solubility ([3]; Capmul PG-8/Labrafil M 1944 CS/Tween 80 (C8LT) 30:40:30 % by weight) | ABT-263 solubility ([3]; Capmul PG-8/Labrafil M 1944 CS/Tween 80 (C8LT) 35:40:25 % by weight) | ABT-263 solubility ([3]; Capmul PG-8/Labrafil M 1944 CS/Tween 80 (C8LT) 40:30:30 % by weight) | ABT-263 solubility ([3]; Capmul PG-8/Labrafil M 1944 CS/Tween 80 (C8LT) 45:30:25 % by weight)
<80 mg/g: Solubility ([1]; in sesame oil, ambient conditions)
<45 mg/g: Solubility ([1]; in Labrafil M 1944 CS, ambient conditions)
<44 mg/g: Solubility ([1]; in Labrafil M 2125 CS, ambient conditions)
